Experimental data published in patent US20260008801A1, “BIO-BASED SURFACTANTS DERIVED FROM CARBOHYDRATES” (COÖPERATIE KONINKLIJKE COSUN U.A., priority 2022, published 2026).

Key:
[1] = Solubility in water (excess of compound in 4 ml demi water); assay type: physicochemical; details: for Solubility: Table E5.2, water
Method: Solubility is preferably solubility in aqueous solution, more preferably solubility in water, most preferably solubility in demineralised water. A skilled person knows how to assess such solubility.
Solubility in water was determined by preparing mixtures of an excess of compound dispersed in 4 ml demi water using a vortex at maximum speed for 1 min. […] 1 ml of the mixture was concentrated in vacuo to yield a solid. The mass of the solid was determined in mg to calculate the solubility in percentage by dividing by ten.

[2] = Foaming abilities, 1% compound solutions shaken by hand; assay type: physicochemical; set-up: key to FOAM: −: no foam formation; +: low foam formation; ++: moderate foam formation; +++: strong foam formation
Method: Foaming abilities were evaluated at room temperature by shaking 1% compound solutions (2 ml) of pH 3, 7, and 12 by hand for 10 s. The pH of each solution was assessed with a pH meter at room temperature. […] The foam heights at the initial time were compared to one another after which the foaming abilities were classified according to no foam formation (−), low foam formation (+), moderate foam formation (++), and strong foam formation (+++).

[3] = Solubility in media other than water (methanol, ethyl acetate, oils, 3:1 EtOH/H2O); assay type: physicochemical
[4] = Foaming power and stability, Ultra-Turrax, 0.4% aq. surfactant; assay type: physicochemical; details: for Foamability (mL) after (min) 1 / Foamability (mL) after (min) 5 / Foamability (mL) after (min) 10: Table E5.2; for Foamability (mL) after (min) 1: foam volume after 1 min; for Foamability (mL) after (min) 5: foam volume after 5 min; for Foamability (mL) after (min) 10: foam volume after 10 min
Method: Foaming power was also tested at room temperature with 5 mL of 0.4% aq. surfactant (20 mg) solution in a 50 mL measuring cylinder. After performing the Ultra-Turrax (a registered trademark for a high-performance dispersing instrument) for 20 seconds (8000 rpm), the initial height of the foam was measured for foam height. (volume in mL). Every time step of, 1, 3, 5, 10, 30, 60 minutes was noted. In addition, after 24 hours the stability was checked. Particularly, foaming power and stability of the surfactants were performed using an IKA Ultra-Turrax T25 with an 18 G dispersing element. At room temperature, an aqueous solution of 5 mL 0.4% surfactant in a 50 mL measuring cylinder (2.20 cm diameter) was mixed with the Ultra-Turrax for 20 seconds at 8000 rpm. The foam height (volume in mL) was denoted for 0, 1, 3, 5, 10, 30, 60 min and 24 hours. In addition, after 24 hours the stability was checked.

[5] = Surface tension measurements, Wilhelmy plate (surface tension, CMC); assay type: physicochemical
Method: Surface tension measurements were performed with a Biolin Scientific Sigma701 automatic tension meter equipped with a Wilhelmy plate made of platinum (±0.5 mN/m). […] The number of experimental points is related to the compound's/surfactant's solubility and available quantity. All compound/surfactant solutions were allowed to stand 12 h before being measured. The platinum plate was thoroughly cleaned with demi water and flame-dried before each measurement. The CMC of each compound/surfactant was determined at the minimum of a breakpoint of a conventional plot of surface tension versus compound/surfactant concentration. DCMC was obtained by acquiring the surface tension at the CMC. The pC20 value was determined by taking the minus log of the concentration compound/surfactant at a surface tension of 52 mN/m.

Zein = Zein solubilisation (skin irritation potential); details: SDS set as 100; for zein score / skin irritation potential value: pH 7
Method: Zein solubilisation was measured to determine the irritation of the surfactants. Zein is a simple protein found in corn. It is a very simple mimic of skin protein, the more solubilised by your material the harsher the potential to irritate and dry the skin. This method is a quick screen and provides indicative data. The procedure is 1) Weight 2-2.5 ml Eppendorf's on a 4 dp balance. 2) Weight out as accurately as possible 70 mg of Zein. 3) Add to the Eppendorf and reweigh. 4) Make your surfactant dilutions. 5) Add 1 ml of the surfactant dilution to the Eppendorf. 6) Place this on a rotary mixer for 20 mins at 20 rpm at RT. 7) Remove and centrifuge for 4 mins at highest speed available on a micro centrifuge 8) Discard the supernatant making sure as much of it possible is removed. 9) Repeat with water, centrifuge and discard supernatant. 10) With the Eppendorf lid open, place at 50° C. overnight to dry (48 hours required). 11) Re-weigh the next day. 12) Calculate the amount of Zein solubilised. The obtained data allows comparison of surfactants and their harshness to skin. Decisions for in vivo testing can be based on good Zein results.
The skin irritation potential of the surfactants was investigated using zein solubilisation, which is a commonly known assay. Zein is a very simple mimic of skin protein. The more zein is solubilized by the surfactant the harsher the potential to irritate and dry the human skin. […] The surfactants were measured at different pH values, a pH of 4-5, 7 and at their original pH as is.

[6] = tested on: activated sludge from a municipal wastewater treatment plant (WWTP); test: Biodegradability, OECD 301A DOC Die-Away Test (adjusted); details: inoculum with compound and sodium acetate
Method: Biodegradability of compounds was assessed. The compound is added to an inoculate of activated sludge from a municipal wastewater treatment plant (WWTP). The experiment relies on the basic principles of the 301A DOC Die-Away Test described in the OECD guidelines for readily biodegradable substances. A small adjustment was made where the measuring is not done in conical flasks but, instead, in serum vials closed with butylrubber stoppers. This allowed measurement of the evolution of CO2 and O2 over time. In general, the experiment involves the experimental incubation (inoculum and compound), along with a blank control (inoculum no compound), a positive control (inoculum and sodium acetate), and controls for abiotic degradation (compound in medium), adsorption (compound with sterilized inoculum), and toxicity (inoculum with compound and sodium acetate).
The fresh sludge was conditioned overnight by bubbling with air at room temperature. […]
Incubations were prepared containing approximately 70 mg/L surfactant and 3 ml sludge in a final volume of 30 ml mineral medium in a borosilicate serum vial crimp-sealed with a butyl rubber stopper. […] 1 ml samples were taken weekly for surfactant quantification and centrifuged 5 min at 20.000×g. […] CO2 was analyzed by measuring headspace gas on an Agilent 8890A/5977B GC-MS equipped with an Agilent 6 FT Porapak Q 80/10 column. […]

[7] = Table E3, N-alkylated compounds

Row | Compound | solubility in water, in words [1] | SOLUBILITY (H2O) [1, 7] | foaming behaviour / foam creation, in words [2] | FOAM ([2]; Table E3) | solubility in methanol, in words [3] | SOLUBILITY (H2O) ([1]; Table E5) [%] | Solubility [1] [%] | Foamability (mL) after (min) 1 [4] [mL] | Foamability (mL) after (min) 5 [4] [mL] | Foamability (mL) after (min) 10 [4] [mL] | CMC (%) ([5]; Table E5.2) | Surface tension (nM/m) ([5]; Table E5.2) [mN/m] | zein score / skin irritation potential value (Zein) | further results
1 | CCCCCCCCN(C)C(=O)[C@H](O)[C@@H](O)[C@@H](O)[C@H](O)C(=O)O [Compound 20] | well soluble | Soluble | good foaming behaviour | ++ | well soluble |  |  |  |  |  |  |  |  | 
2 | CCCCCCCCCCCCN(C)C(=O)[C@H](O)[C@@H](O)[C@@H](O)[C@H](O)C(=O)O [Compound 22] | well soluble | Soluble | good foaming behaviour | ++ | well soluble |  |  |  |  |  |  |  |  | 
3 | CCCCCCCCN(C)C[C@H](O)[C@@H](O)[C@@H](O)[C@H](O)C(=O)O [Compound 31, N-methyl-N-octyl-D-galacturonic acid amine] |  |  |  |  |  | 15 | 15 | 4.5 | 4 | 4 | 1.15 | 32.1 | 1 | solubility in H2O [1]: 15%; FOAM ([2]; Table E5, pH > 7.3): ++; CMC (%) ([5]; Table E5): 1.15%; SURFACE TENSION ([5]; Table E5, room temperature, pH 7): 32.067 mN/m; SURFACE TENSION ([5]; running text b302): 31.5 mN/m; inhibition of breakdown of acetate (toxicity control) [6]: did not inhibit
4 | CCCCCCNC[C@H](O)[C@@H](O)[C@@H](O)[C@H](O)C(=O)O [Compound 37, N-hexyl-D-galacturonic acid amine, reference compound] |  |  |  |  |  | 14 | 14 |  |  |  |  |  |  | FOAM ([2]; Table E5, pH not given): −; Solubility in 3:1 EtOH/H2O ([3]; 3:1 ethanol water ratio): (Poorly in 3:1
5 | sodium laureth sulfate [SLES, reference compound] |  |  |  |  |  |  | 28 | 4 | 4 | 3 | 0.2 | 33.8 | 49 | SOLUBILITY (H2O) ([1]; Table E7, commercially available surfactants): Yes; Solubility (%) ([1]; Table E8): 28%; FOAM ([2]; Table E7): ++; Foamability 1 min ([4]; Table E8, after 1 min): 4 mL; Foamability 5 min ([4]; Table E8, after 5 min): 4 mL; Foamability 30 min ([4]; Table E8, after 30 min): 3 mL; concentration at which the surface tension is reached [5]: 0.02%; CMC (%) ([5]; Table E7): 0.2%; SURFACE TENSION ([5]; Table E7): 36.5 mN/m; CMC (%) ([5]; Table E8): 0.2%; Surface tension (nM/m) ([5]; Table E8): 33.8 mN/m; skin irritation potential value (zein) (Zein; pH11): > 49
